# Laboratory results: patent publication US9562085B2, “Antimicrobial peptide” (priority 2013, dated 2017)
# Non-standard residues stand in square brackets, D forms with d. Residues, ends and D or L forms follow the SMILES beside them. *: point of attachment. Myristoyl = CCCCCCCCCCCCCC(=O)*; Hexanoyl = CCCCCC(=O)*; Ahx = NCCCCCC(=O)O
# Test system: S. aureus JAR
# Assay type: cell-based
# Settings: JAR, 2 h
# Description: S. aureus JAR is described in Campoccia et al. (Int. J. Artif. Organs, 2008 September; 31(9):841-7).
# For the in vitro killing assay with P10 variants, S. aureus JAR ([…] CFU/ml) were incubated for 2 hours at 37° C. with various concentrations of the peptides in PBS or in PBS/human plasma (1/1, v/v). […] The LC99.9 is the average value of two independent experiments.
Compound,LC99.9 (μM) (50% plasma),LC99.9 (μM) (PBS)
"CCCCCCCCCCCCCC(=O)N[C@@H](CC(C)C)C(=O)N[C@@H](C)C(=O)N[C@@H](CCCNC(=N)N)C(=O)N[C@@H](CCC(=O)O)C(=O)N[C@@H](Cc1ccc(O)cc1)C(=O)N[C@@H](CCCCN)C(=O)N[C@@H](CCCCN)C(=O)N[C@H](C(=O)N[C@H](C(=O)N[C@@H](CCC(=O)O)C(=O)N[C@@H](CCCCN)C(=O)N[C@@H](CC(C)C)C(=O)N[C@@H](CCCCN)C(=O)N[C@@H](CCCNC(=N)N)C(=O)N[C@@H](Cc1c[nH]c2ccccc12)C(=O)N[C@@H](CC(C)C)C(=O)N[C@@H](CCCNC(=N)N)C(=O)N[C@@H](CCC(N)=O)C(=O)N[C@H](C(=O)N[C@@H](CC(C)C)C(=O)N[C@@H](CCCNC(=N)N)C(=O)N[C@H](C(=O)N[C@@H](CC(C)C)C(=O)N[C@@H](CCCNC(=N)N)C(N)=O)[C@@H](C)O)C(C)C)C(C)C)[C@@H](C)CC [Peptide 1302-10, uLAREYKKIVEKLKRWLRQVLRTLRB] (Myristoyl-LAREYKKIVEKLKRWLRQVLRTLR-NH2)",102.4 µM,2.0 µM
"Ac-LAREYKKIVEKIKRWLRQVLRTLR-NH2 [Peptide 1302-33, JLAREYKKIVEKIKRWLRQVLRTLRB]",102.4 µM,3.2 µM
"Ac-LAREYKKIVEKLKRWLRQVLRTLH-NH2 [Peptide 1302-55, JLAREYKKIVEKLKRWLRQVLRTLHB]",102.4 µM,1.2 µM
"CC[C@H](C)[C@H](NC(=O)[C@H](CCCCN)NC(=O)[C@H](CCCCN)NC(=O)[C@H](Cc1ccc(O)cc1)NC(=O)[C@H](CCC(=O)O)NC(=O)[C@H](CCCNC(=N)N)NC(=O)[C@H](C)NC(=O)[C@H](CC(C)C)NC(C)=O)C(=O)N[C@H](C(=O)N[C@@H](CCC(=O)O)C(=O)N[C@H](CCCCN)C(=O)N[C@@H](CC(C)C)C(=O)N[C@@H](CCCCN)C(=O)N[C@@H](CCCNC(=N)N)C(=O)N[C@@H](Cc1c[nH]c2ccccc12)C(=O)N[C@@H](CC(C)C)C(=O)N[C@@H](CCCNC(=N)N)C(=O)N[C@@H](CCC(N)=O)C(=O)N[C@H](C(=O)N[C@@H](CC(C)C)C(=O)N[C@@H](CCCNC(=N)N)C(=O)N[C@H](C(=O)N[C@@H](CC(C)C)C(=O)N[C@@H](CCCNC(=N)N)C(N)=O)[C@@H](C)O)C(C)C)C(C)C [Peptide 1301-11, JLAREYKKIVEkLKRWLRQVLRTLRB] (Ac-LAREYKKIVE[dK]LKRWLRQVLRTLR-NH2)",19.2 µM,0.4 µM
"CCCCCC(=O)N[C@@H](CC(C)C)C(=O)N[C@@H](C)C(=O)N[C@@H](CCCNC(=N)N)C(=O)N[C@@H](CCC(=O)O)C(=O)N[C@@H](Cc1ccc(O)cc1)C(=O)N[C@@H](CCCCN)C(=O)N[C@@H](CCCCN)C(=O)N[C@H](C(=O)N[C@H](C(=O)N[C@@H](CCC(=O)O)C(=O)N[C@@H](CCCCN)C(=O)N[C@@H](CC(C)C)C(=O)N[C@@H](CCCCN)C(=O)N[C@@H](CCCNC(=N)N)C(=O)N[C@@H](Cc1c[nH]c2ccccc12)C(=O)N[C@@H](CC(C)C)C(=O)N[C@@H](CCCNC(=N)N)C(=O)N[C@@H](CCC(N)=O)C(=O)N[C@H](C(=O)N[C@@H](CC(C)C)C(=O)N[C@@H](CCCNC(=N)N)C(=O)N[C@H](C(=O)N[C@@H](CC(C)C)C(=O)N[C@@H](CCCNC(=N)N)C(N)=O)[C@@H](C)O)C(C)C)C(C)C)[C@@H](C)CC [Peptide 1302-8, bLAREYKKIVEKLKRWLRQVLRTLRB] (Hexanoyl-LAREYKKIVEKLKRWLRQVLRTLR-NH2)",102.4 µM,1.2 µM
"CC[C@H](C)[C@H](NC(=O)[C@H](CCCCN)NC(=O)[C@H](CCCCN)NC(=O)[C@H](Cc1ccc(O)cc1)NC(=O)[C@H](CCC(=O)O)NC(=O)[C@H](CCCNC(=N)N)NC(=O)[C@H](C)NC(=O)[C@H](CC(C)C)NC(C)=O)C(=O)N[C@H](C(=O)N[C@@H](CCC(=O)O)C(=O)N[C@@H](CCCCN)C(=O)N[C@@H](CC(C)C)C(=O)N[C@@H](CCCCN)C(=O)N[C@@H](CCCNC(=N)N)C(=O)N[C@@H](Cc1c[nH]c2ccccc12)C(=O)N[C@@H](CC(C)C)C(=O)N[C@@H](CCCNC(=N)N)C(=O)N[C@@H](CCC(N)=O)C(=O)N[C@H](C(=O)N[C@@H](CC(C)C)C(=O)N[C@@H](CCCNC(=N)N)C(=O)N[C@H](C(=O)N[C@@H](CC(C)C)C(=O)N[C@@H](CCCNC(=N)N)C(=O)NCCCCCC(N)=O)[C@@H](C)O)C(C)C)C(C)C [Peptide 1302-6, JLAREYKKIVEKLKRWLRQVLRTLRZB] (Ac-LAREYKKIVEKLKRWLRQVLRTLR[Ahx]-NH2)",38.4 µM,0.6 µM
"CC[C@H](C)[C@H](NC(=O)[C@H](CCCCN)NC(=O)[C@H](CCCCN)NC(=O)[C@H](Cc1ccc(O)cc1)NC(=O)[C@H](CCC(=O)O)NC(=O)[C@H](CCCNC(=N)N)NC(=O)[C@H](C)NC(=O)[C@H](CC(C)C)NC(C)=O)C(=O)N[C@H](C(=O)N[C@@H](CCC(=O)O)C(=O)N[C@@H](CCCCN)C(=O)N[C@@H](CC(C)C)C(=O)N[C@@H](CCCCN)C(=O)N[C@@H](CCCNC(=N)N)C(=O)N[C@@H](Cc1c[nH]c2ccccc12)C(=O)N[C@@H](CC(C)C)C(=O)N[C@H](CCCNC(=N)N)C(=O)N[C@@H](CCC(N)=O)C(=O)N[C@H](C(=O)N[C@@H](CC(C)C)C(=O)N[C@@H](CCCNC(=N)N)C(=O)N[C@H](C(=O)N[C@@H](CC(C)C)C(=O)N[C@@H](CCCNC(=N)N)C(N)=O)[C@@H](C)O)C(C)C)C(C)C [Peptide 1301-17, JLAREYKKIVEKLKRWLrQVLRTLRB] (Ac-LAREYKKIVEKLKRWL[dR]QVLRTLR-NH2)",38.4 µM,0.6 µM
"Ac-LAREYKKIVEKLHRWLRQVLRTLR-NH2 [Peptide 1302-37, JLAREYKKIVEKLHRWLRQVLRTLRB]",102.4 µM,3.2 µM
"Ac-REYKKIVEKLKRWLRQVLRT-NH2 [Peptide 1302-58, JREYKKIVEKLKRWLRQVLRTB]",76.8 µM,1.6 µM
"Ac-LAREYKKPVEKLKRWLPQVLRTLR-NH2 [Peptide 1302-16, JLAREYKKPVEKLKRWLPQVLRTLRB]",102.4 µM,>3.2 µM
"Ac-LQREYKKIVEKLKRWLRQVLRTLR-NH2 [Peptide 1302-22, JLQREYKKIVEKLKRWLRQVLRTLRB]",76.8 µM,1.6 µM
"Ac-LAREYKPIVEKLKRWPRQVLRTLR-NH2 [Peptide 1302-13, JLAREYKPIVEKLKRWPRQVLRTLRB]",>102.4 µM,>3.2 µM

# Same assay, conditions: S. aureus JAR, 2 hours at 37° C. in PBS/human plasma (1/1, v/v); concentration killing 99.9% of the bacteria; average of two experiments
row,Compound,LC99.9 (μM) (50% plasma)
1,"Ac-LAREYKKIVEKLKRWLRQVARTLR-NH2 [Peptide 1302-49, JLAREYKKIVEKLKRWLRQVARTLRB]",51.2 µM

# Same assay, conditions: S. aureus JAR, 2 hours at 37° C. in PBS; concentration killing 99.9% of the bacteria; average of two experiments
row,Compound,LC99.9 (μM) (PBS)
1,"Ac-LAREYKKIVEKLKRWLRQVARTLR-NH2 [Peptide 1302-49, JLAREYKKIVEKLKRWLRQVARTLRB]",1.6 µM
